{
  "source": "paper PMC5039624",
  "about": "(Scientific Reports, 2016)",
  "experiment": "Liposome centrifugation assay, POPG liposomes",
  "format": "physicochemical",
  "settings": "LUVs extruded through 0.1 μm filters, 10 mM HEPES pH 7.4, 150 mM NaCl; 10 μM toxin, 1 h room temperature, 30 min at 100,000 g; unbound toxin in supernatant by RP-HPLC; fit to partition equilibrium equation",
  "experimental": "To investigate whether the micelle-binding interface identified by NMR-CSM faithfully reports on the lipid-binding interface of the peptide we used a previously reported liposome centrifugation assay[30] to study the interaction between VSTx1 and phospholipids with different head groups. VSTx1 was incubated with liposomes of different composition, then the liposomes were pelleted using ultracentrifugation and the amount of unbound VSTx1 in the supernatant was determined using reverse-phase (RP) HPLC (Fig. 4a,b). Partition coefficients (Kp) for binding of VSTx1 to liposomes were calculated by fitting to the partition equilibrium equation (see Eqn (3) in Materials and Methods). The Kp for binding to 1-palmitoyl-2-oleoyl-sn-glycero-3-phosphoglycerol (POPG) liposomes was 2.4 × 10^5 while the Kp values for binding to POPC or 1-palmitoyl-2-oleoyl-sn-glycero-3-phosphoethanolamine (POPE) liposomes were close to 0 (both <10^2) (Fig. 4e).\nLarge unilamellar vesicles (LUVs) were prepared by drying lipids (POPG and/or POPC, 25 mg/mL) under nitrogen gas, drying the lipid pellet under vacuum, and resuspending the lipids by vortexing for 1 h in an aqueous buffer containing 10 mM HEPES pH 7.4, and 150 mM NaCl. Vesicles were extruded 20 times using 0.1 μm polycarbonate filters (Avanti Polar Lipids, Inc.). Aqueous solutions of the toxin (10 μM) were incubated with varying amounts of vesicles for 1 h at room temperature, then the vesicles were centrifuged for 30 min at 100,000 g before the toxin concentration in the aqueous phase was determined. Aqueous concentrations of VSTx1 were quantified by RP-HPLC using a monolithic C18 column (4.6 × 100 mm). The toxin was eluted with a linear gradient of 10–50% solvent B (0.046% TFA in acetonitrile) in solvent A (0.05% TFA in water) over 10 min at a flow rate of 3 ml/min. The partition coefficients (Kp) for the binding of VSTx1 to liposomes were calculated by fitting to the partition equilibrium equation: […]",
  "note": "Bridge positions count the residues as written; N and C are the ends. Peptide text beside a SMILES is read from it.",
  "data": [
    {"compound": "CSCC[C@@H]1NC(=O)[C@H](Cc2ccccc2)NC(=O)[C@H](CCCCN)NC(=O)CNC(=O)[C@@H](NC(=O)[C@H](CCC(=O)O)NC(=O)[C@@H](N)CO)CSSC[C@@H]2NC(=O)[C@@H]3CSSC[C@@H](C(=O)N[C@H](C(=O)N[C@@H](C)C(=O)N[C@@H](C)C(=O)N[C@@H](CO)C(=O)N4CCC[C@H]4C(=O)N[C@@H](Cc4ccccc4)C(=O)O)C(C)C)NC(=O)[C@H](Cc4c[nH]c5ccccc45)NC(=O)[C@H](CCCCN)NC(=O)[C@H](Cc4c[nH]c5ccccc45)NC(=O)[C@H](CCCNC(=N)N)NC(=O)[C@H](CO)NC(=O)[C@H](CO)NC(=O)[C@H](CSSC[C@H](NC(=O)[C@H](CCCCN)NC(=O)[C@H](Cc4c[nH]c5ccccc45)NC1=O)C(=O)N[C@@H](CCCCN)C(=O)N[C@@H](CC(N)=O)C(=O)N[C@@H](CO)C(=O)N[C@@H](CC(N)=O)C(=O)N[C@@H](CC(=O)O)C(=O)N3)NC(=O)[C@H](C(C)C)NC(=O)[C@H](CC(C)C)NC(=O)[C@H](CC(=O)O)NC(=O)[C@H](CCCCN)NC2=O", "note": "[L30A] (H-SECGKFMWKCKNSNDCCKDLVCSSRWKWCVAASPF-OH; disulfide 3-17, 10-22, 16-29)", "values": [
      {"measurement": "Partition coefficient (Kp) for binding to POPG liposomes", "value": "0.55 × 10^5"}
    ]},
    {"compound": "CSCC[C@@H]1NC(=O)[C@H](Cc2ccccc2)NC(=O)[C@H](CCCCN)NC(=O)CNC(=O)[C@@H](NC(=O)[C@H](CCC(=O)O)NC(=O)[C@@H](N)CO)CSSC[C@@H]2NC(=O)[C@@H]3CSSC[C@@H](C(=O)N[C@H](C(=O)N[C@@H](CC(C)C)C(=O)N[C@@H](C)C(=O)N[C@@H](CO)C(=O)N4CCC[C@H]4C(=O)N[C@@H](Cc4ccccc4)C(=O)O)C(C)C)NC(=O)[C@H](Cc4c[nH]c5ccccc45)NC(=O)[C@H](CCCCN)NC(=O)[C@H](Cc4c[nH]c5ccccc45)NC(=O)[C@H](CCCNC(=N)N)NC(=O)[C@H](CO)NC(=O)[C@H](CO)NC(=O)[C@H](CSSC[C@H](NC(=O)[C@H](CCCCN)NC(=O)[C@H](C)NC1=O)C(=O)N[C@@H](CCCCN)C(=O)N[C@@H](CC(N)=O)C(=O)N[C@@H](CO)C(=O)N[C@@H](CC(N)=O)C(=O)N[C@@H](CC(=O)O)C(=O)N3)NC(=O)[C@H](C(C)C)NC(=O)[C@H](CC(C)C)NC(=O)[C@H](CC(=O)O)NC(=O)[C@H](CCCCN)NC2=O", "note": "[W7A] (H-SECGKFMAKCKNSNDCCKDLVCSSRWKWCVLASPF-OH; disulfide 3-17, 10-22, 16-29)", "values": [
      {"measurement": "Partition coefficient (Kp) for binding to POPG liposomes", "value": "0.77 × 10^5"}
    ]},
    {"compound": "CSCC[C@@H]1NC(=O)[C@H](Cc2ccccc2)NC(=O)[C@H](CCCCN)NC(=O)CNC(=O)[C@@H](NC(=O)[C@H](CCC(=O)O)NC(=O)[C@@H](N)CO)CSSC[C@@H]2NC(=O)[C@@H]3CSSC[C@@H](C(=O)N[C@H](C(=O)N[C@@H](CC(C)C)C(=O)N[C@@H](C)C(=O)N[C@@H](CO)C(=O)N4CCC[C@H]4C(=O)N[C@@H](Cc4ccccc4)C(=O)O)C(C)C)NC(=O)[C@H](Cc4c[nH]c5ccccc45)NC(=O)[C@H](CCCCN)NC(=O)[C@H](Cc4c[nH]c5ccccc45)NC(=O)[C@H](CCCNC(=N)N)NC(=O)[C@H](CO)NC(=O)[C@H](CO)NC(=O)[C@H](CSSC[C@H](NC(=O)[C@H](C)NC(=O)[C@H](Cc4c[nH]c5ccccc45)NC1=O)C(=O)N[C@@H](CCCCN)C(=O)N[C@@H](CC(N)=O)C(=O)N[C@@H](CO)C(=O)N[C@@H](CC(N)=O)C(=O)N[C@@H](CC(=O)O)C(=O)N3)NC(=O)[C@H](C(C)C)NC(=O)[C@H](CC(C)C)NC(=O)[C@H](CC(=O)O)NC(=O)[C@H](CCCCN)NC2=O", "note": "[K8A] (H-SECGKFMWACKNSNDCCKDLVCSSRWKWCVLASPF-OH; disulfide 3-17, 10-22, 16-29)", "values": [
      {"measurement": "Partition coefficient (Kp) for binding to POPG liposomes", "value": "0.38 × 10^5"}
    ]}
  ]
}
